Where two headings read alike, the source gives them in different places. Where a SMILES comes first, the peptide text is derived from it. Where no end group is shown, it is not given here.
Legend:
[1] = molecular target: T1, binding of E. coli α to E. coli β (Escherichia coli, UniProt P0A988); assay: biochemical; settings: for inhibition of the binding of α to β: plate inhibition assay as in Example 6, buffer BB14
T1 construct: made in house
Protocol: Recombinantly expressed wild type E. coli α subunit was purified and coated onto 96 well microtitre plates (Falcon flexible plates, Becton Dickinson) at 20 μg/ml in 100 mM Na2CO3, pH9.5 (50 μl/well, 4° C. overnight or 2 h, RT (RT). The plates were washed in WB3 (20 mM Tris (pH 7.5), 0.1 mM EDTA containing 0.05% v/v Tween 20). This buffer was used in all wash steps through out the assay. The plates were then blocked with “blotto” (5% skim milk powder in WB3, 100 μl/well, RT) until required. Immediately before use the plates were washed.
The purified synthetic peptides and β subunit were diluted in BB14 (20 mM Tris, pH 7.5, 10 mM MgCl2, 0.1 mM EDTA). Purified synthetic peptides with concentrations of 9.3-300 and 1000 μg/ml were allowed to complex with purified wild type β subunit (5 μg/ml) in a 96 well microtitre plate (Sarsted, Adelaide, Australia) pre-treated with “blotto” (30 min, RT). The reaction volume was 120 μl. The β subunit also was incubated in the absence of peptide or in the presence of the α subunit at 76.5 (μg/ml in BB14. All samples were incubated for 1 h (RT). Two 50 μl samples were transferred from each well to a corresponding well of the washed and “blocked” α subunit coated plates, and further incubated for 30 min (RT).
The plates were washed and treated with rabbit serum raised to the β subunit. The anti-serum was diluted 1:1000 in WB3 containing 10% “blotto”, dispensed at 50 μl/well and incubated for 12 min (RT). The plates were washed again and treated with sheep anti-rabbit Ig-HRP conjugate (Silenus, Melbourne, Australia) diluted 1:1000 in WB3 containing 10% “blotto” (50 μl/well). The plate was incubated for 12 min (RT). After a final washing step, 1 mM 2,2′-azino-bis (3-ethylbenzthiazoline-6-sulfonic acid) was added (110 μl/well). Colour development was assessed at 405 nm using a plate reader (Multiskan Ascent, Labsystems, Sweden).
For the CMS compounds in the of α:β assays, buffer BB37 replaced buffer BB14. Buffer BB37 contains 10 mM MnCl2 instead of the 10 mM MgCl2 used in BB14. The buffer conditions were changed to improve the reproducibility and sensitivity of the α:β binding assay.
Compounds from the CMS library were dissolved in DMSO at 1 mg/ml in a 96 well tray format. A corresponding slave plate was prepared by adding 115 μl of BB37. Dissolved compounds (5 μl) from the master plate was added to the corresponding well in slave plates giving a final concentration of 41.7 μg/ml.
Compounds were assayed for inhibition of the binding of E. coli α to E. coli β as described in Example 13.
Peptides were assayed for inhibition of the binding of E. coli α to E. coli β as described in Example 6 with the exception that buffer BB37 replaced buffer BB14 in the alpha:beta binding assay. As noted above, BB37 contains 10 mM MnCl2 instead of 10 mM MgCl2 used in BB14. Again, the change in buffer conditions was made to improve the reproducibility and sensitivity of the α:β binding assay.

[2] = molecular target: binding of E. coli δ to E. coli β (Escherichia coli, UniProt P0A988); assay: biochemical; settings: for inhibition of the binding of δ to β: plate binding assay as in Example 6
Sequence of binding of E. coli δ to E. coli β (P0A988 whole entry): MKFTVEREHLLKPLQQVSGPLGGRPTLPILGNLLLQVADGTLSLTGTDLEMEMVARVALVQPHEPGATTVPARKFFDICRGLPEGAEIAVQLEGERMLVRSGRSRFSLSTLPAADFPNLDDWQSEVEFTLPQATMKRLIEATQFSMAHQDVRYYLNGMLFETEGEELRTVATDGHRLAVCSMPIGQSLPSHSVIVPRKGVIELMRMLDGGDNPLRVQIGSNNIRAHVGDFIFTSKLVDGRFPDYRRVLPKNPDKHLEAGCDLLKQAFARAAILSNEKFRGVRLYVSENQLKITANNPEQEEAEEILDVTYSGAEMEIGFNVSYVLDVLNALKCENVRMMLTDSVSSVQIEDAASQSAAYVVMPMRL

[3] = molecular target: T2, β subunit (Escherichia coli, UniProt P0A988); assay: Surface plasmon resonance solution affinity analysis (IC50 of free peptide); assay type: binding, E. coli
T2 sequence (P0A988 whole entry): as above
Protocol: (§1) Reverse phase HPLC purified peptides (10 μg) were reacted with 1 mg biotin-linker (6-(6-((biotinoyl)amino(hexanoyl) amino) hexanoic acid) sulphosuccinimidyl ester; Molecular Probes, Eugene, Oreg.) (20 mg/ml in DMSO) in 75 mM sodium borate (pH8.5) overnight (RT) with rotation. […] Biotinylated peptides that eluted later than the biotin-linker and free peptide, were collected, vacuum dried and then dissolved in water. SPR was conducted on a Biacore 2000 using streptavidin derivitised flow cell surfaces (Biacore). All β subunit and free peptide solutions were prepared in BB14 with 150 mM NaCl.
For the solution affinity analyses, higher loadings of the biotinylated peptides on the flow cell surfaces, and therefore high RU (700-1000), were established. Loading with peptide 4 generated a negative control surface. […] In all data manipulations, the RU values of this surface was subtracted from the RU values of the test surface. A calibration curve of RU values generated at different concentrations of the β subunit over 10-100 nM was developed for each biotinylated peptide attached to the flow cell surface. To determine the inhibitory effect of free peptide, 100 nM β subunit was pre-incubated for 5 min with different concentrations of free peptide (10 nM to 4.5 μM, in duplicate) to form a complex of β subunit and peptide and then passed over the flow cell surfaces. The amount of free uncomplexed βremaining was determined from the calibration curve. The log of the concentration of the uncomplexed (free) β subunit was plotted against the log concentration of inhibitory peptide.

[4] = system: B. subtilis IH 6140; assay: Inhibition of growth of B. subtilis by peptides (OD620 growth curve); assay type: cell-based, Bacillus subtilis
Protocol: B. subtilis IH 6140 was subcultured from a fresh plate into a 10 ml tube containing 5 ml of Oxoid Mueller-Hinton broth (Oxoid code CM405 Oxoid Manual 7th edition 1995 pg 2-161). This culture was shaken at 120 rpm at 37° C. for 21 h and then diluted in normal saline to 0.5 McFarland Standard (NCCLS Performance standard for Dilution Antimicrobial Susceptibility Testing M7-A4 January 1997). This suspension was further diluted 1:5 in normal saline to form the bacterial starter culture. Peptides were tested at a final concentration of 1 mg/ml in a flat bottom 96 well plate (Nunclon surface, sterile Nalge Nunc International). Wells were prepared by using 100 μl of double strength Mueller-Hinton Broth, an appropriate volume of peptide and the final volume made up to 190 μl. The wells were then inoculated with 10 μl of the starter culture.
The plate was sealed with a clear adhesive plate seal (Abgene House). It was then placed in a Labsystems Multiskan Ascent spectrophotometer. The plate was incubated at 37° C. with shaking at 120 rpm every alternate 10 seconds. The absorbence at 620 nm was measured every 30 min for 16 h.

[5] = molecular target: T2, β subunit; assay: biochemical; assay type: binding, E. coli; settings: SPR, 1:1 Langmuir model
Protocol: as §1
The data was fitted to the 1:1 Langmuir model by the BioEvaluation software (Biacore).

[6] = Table 24, buffer BB37 (10 mM MnCl2), read-out: IC50 α:β
[7] = Table 21, NCI compounds, buffer BB14, read-out: IC50 α-binding
[8] = IC50 b-peptide 1, free peptide with 100 nM β, biotinylated peptide 1 on flow cell surface
[9] = IC50 b-peptide 14, free peptide with 100 nM β, biotinylated peptide 14 on flow cell surface
[10] = Table 17, α-coated plate, β 5 μg/ml, buffer BB14, read-out: IC50 α (inhibition of binding of α to β) (converted)
[11] = Table 20, assayed as in Example 6, read-out: IC50 α:β
[12] = IC50 δ (inhibition of binding of δ to β), Table 17, δ-coated plate, β 1 μg/ml
[13] = B. subtilis IH 6140, peptide 1 mg/ml, OD620 over 16 h
[14] = biotinylated peptide on surface, read-out: KD
[15] = biotinylated peptide on flow cell surface, read-out: KD
[16] = free peptide with 100 nM β, biotinylated peptide 1 on flow cell surface, read-out: IC50 b-peptide 1
[17] = free peptide with 100 nM β, biotinylated peptide 14 on flow cell surface, read-out: IC50 b-peptide 14

T1 sequence (P0A988 whole entry): as above

IGQLSLPLGV [Peptide 110c]
IC50 [1, 6]: 3.4 µM | IC50 ([2]; IC50 δ:β, Table 24): 3.3 µM

NC(CCC(=O)NC(CSCC(=O)c1ccc(Br)cc1)C(=O)NCC(=O)O)C(=O)O (centres unmarked) [Peptide 131123]
IC50 [1, 7]: 210 µM | inhibition of the binding of α to β [1]: significantly inhibited | IC50 ([2]; IC50 δ-binding, Table 21): > 1000 µM

IGQADMAGV [Peptide 4]
IC50 [3, 8]: > 10 µM | IC50 [3, 9]: > 10 µM

IGQLNLFGV [Peptide 110d]
IC50 [1, 6]: 7.8 µM | IC50 ([2]; IC50 δ:β, Table 24): 11.5 µM

CC(C)C[C@H](NC(=O)[C@@H](N)CC(=O)O)C(=O)N[C@@H](Cc1ccccc1)C(=O)O [pep16] (H-Asp-Leu-Phe-OH; N-terminus and C-terminus assumed)
IC50 [1, 10]: 343 µM | IC50 [1, 11]: 135 µM | IC50 [2, 12]: 3050 µM

CC(=O)N[C@@H](CC(=O)O)C(=O)N[C@@H](CC(C)C)C(=O)N[C@@H](Cc1ccccc1)C(N)=O [pep18] (Ac-Asp-Leu-Phe-NH2)
IC50 [1, 11]: 135 µM

CC(C)C[C@H](NC(=O)[C@@H](N)CC(=O)O)C(=O)N[C@@H](Cc1ccccc1)C(=O)O [DLF] (H-Asp-Leu-Phe-OH; N-terminus and C-terminus assumed)
IC50 ([1]; α:β binding, 50% inhibition, plate inhibition assay): ~343 µM | IC50 ([2]; δ:β binding, 50% inhibition, plate binding assay): ~3050 µM | Doubling time log phase [4, 13]: 187 Min | Increase in lag phase [4, 13]: 120 min | effect on growth rate during log phase of B. subtilis ([4]; peptide 1 mg/ml): decreasing the growth rate | effect on lag phase of B. subtilis growth ([4]; peptide 1 mg/ml): increasing the lag phase | inhibition of growth of B. subtilis ([4]; peptide 1 mg/ml, OD620 over 16 h): significantly inhibits

IGQLDMFGV [Peptide 1]
inhibition of the binding of α to β [1]: significant inhibition | inhibition of the binding of δ to β [2]: inhibited | Kd ([5]; KD, biotinylated peptide on surface): 0.5 µM | Kd ([5]; KD, biotinylated peptide on flow cell surface): 0.558 µM | IC50 [3, 8]: 0.92 µM | IC50 [3, 9]: 1.01 µM

CC(C)(C)OC(=O)NCC(=O)NC(CSC(c1ccccc1)c1ccccc1)C(=O)NCC(=O)O (centres unmarked) [Peptide 338500]
IC50 [1, 7]: > 1000 µM | IC50 ([2]; IC50 δ-binding, Table 21): 146 µM | inhibition of the binding of δ to β [2]: significantly inhibited

IGQASMFGV [pep2]
IC50 [1]: 946 µM | IC50 δ (inhibition of binding of δ to β) ([2]; Table 17, δ-coated plate, β 1 μg/ml): ni^a

IGQAMSLFGV [Peptide 110a]
IC50 [1, 6]: 27 µM | IC50 ([2]; IC50 δ:β, Table 24): > 100 µM

EAQLDLFDS [Peptide 112d]
IC50 [1]: 1 µM | IC50 [2]: 3.6 µM

IGQLDLFGV [pep14]
IC50 [1, 10]: 1.38 µM | IC50 [2, 12]: 9.16 µM

IGQLSLFGV [Peptide 13]
IC50 [1, 10]: 1.52 µM | IC50 [1, 6]: 4.9 µM | inhibition of the binding of α to β [1]: significant inhibition | IC50 [2, 12]: 10.2 µM | IC50 ([2]; IC50 δ:β, Table 24): 5.9 µM | inhibition of the binding of δ to β [2]: inhibited | Kd [5, 14]: 0.778 µM | Kd [5, 15]: 0.8 µM | IC50 [3, 16]: 0.44 µM | IC50 [3, 17]: 0.55 µM

COC(=O)CC(=O)NOCc1ccc(Cl)c(Cl)c1 [AOL-06454]
inhibition of the binding of E. coli α to E. coli β (CMS library screen) [1]: significantly inhibited

IGQLDLFGV [Peptide 14]
inhibition of the binding of α to β [1]: significant inhibition | inhibition of the binding of δ to β [2]: inhibited | Kd [5, 14]: 0.8 µM | Kd [5, 15]: 0.778 µM | IC50 [3, 16]: 0.4 µM | IC50 [3, 17]: 0.5 µM

IGQLVLGLGV [Peptide 110b]
IC50 [1, 6]: 9.3 µM | IC50 ([2]; IC50 δ:β, Table 24): 6.8 µM

CC[C@H](C)[C@H](N)C(=O)NCC(=O)N[C@@H](CCC(N)=O)C(=O)N[C@@H](C)C(=O)N[C@@H](CC(=O)O)C(=O)N[C@@H](CCSC)C(=O)N[C@@H](Cc1ccccc1)C(=O)NCC(=O)N[C@H](C(=O)O)C(C)C [DnaE]
inhibition of the binding of α to β [1]: significant inhibition | inhibition of the binding of δ to β [2]: inhibited

IGQMSLLGV [Peptide 110e]
IC50 [1, 6]: 9.7 µM | IC50 ([2]; IC50 δ:β, Table 24): 7 µM

IGQLGLFGV [Peptide 110f]
IC50 [1, 6]: 17.5 µM | IC50 ([2]; IC50 δ:β, Table 24): 9.5 µM

COC(=O)CC(=O)NOCc1ccc(Cl)c(Cl)c1 [AOC-06454]
% Inhibition of binding of E. coli α to E. coli β [1]: 72.2, 75.3%

IGQLDMFGV [pep1]
IC50 [1]: 2.86 µM | IC50 [2]: 13.2 µM
